In brackets after ≈: the same amount, converted by molar mass. Values belong to the compound of their own block, whether it stands above or below them.
Columns and labels:
Assay in all cases: ≥ marks a high value that may be exact or a test limit, other limits are often not marked, values filed in µg/mL are converted to µM
[1] = test system: Pseudomonas aeruginosa ATCC 9027
[2] = test system: Staphylococcus aureus ATCC 25923
[3] = test system: Enterococcus faecalis PCM 2673
[4] = test system: Candida albicans ATCC 10231
[5] = test system: Escherichia coli ATCC 25922
[6] = test system: Candida albicans ATCC 24433
[7] = test system: Staphylococcus epidermidis ATCC 12228
[8] = test system: Pseudomonas aeruginosa ATCC 27853
[9] = test system: Escherichia coli NCTC 10418
[10] = test system: Candida albicans NCYC 1467
[11] = test system: Staphylococcus aureus NCTC 12493
[12] = test system: Enterococcus faecalis NCTC 12697
[13] = test system: Klebsiella pneumoniae ATCC 43816
[14] = test system: Staphylococcus aureus NCTC 10788
[15] = test system: Listeria monocytogenes EGD
[16] = test system: Candida albicans ATCC 90028
[17] = test system: Trichophyton rubrum ATCC 28189
[18] = test system: Candida parapsilosis ATCC 22019
Escherichia coli = test system: Escherichia coli
Staphylococcus aureus = test system: Staphylococcus aureus
[19] = test system: Enterococcus faecalis ATCC 29212
[20] = test system: Bacillus subtilis CMCC 63501
[21] = test system: Salmonella enterica subsp. enterica serovar Typhimurium ATCC 14028
[22] = test system: Staphylococcus aureus ATCC 29213
[23] = test system: Salmonella enterica subsp. enterica serovar Pullorum C79-13
Escherichia coli UB1005 = test system: Escherichia coli UB1005

- MIC [1]: > 360 µM
- MIC [2]: > 360 µM
- MIC [3]: ≥ 45 µM
- MIC [4]: 45 µM (≈ 64 µg/mL)
- MIC [5]: 89.9 µM (≈ 128 µg/mL)
SMILES: CC[C@H](C)[C@H](NC(=O)[C@H](C)NC(=O)[C@H](CCCCN)NC(=O)[C@@H](NC(=O)[C@@H](NC(=O)[C@H](CC(=O)O)NC(=O)[C@H](Cc1ccccc1)NC(=O)[C@H](CC(C)C)NC(=O)CN)[C@@H](C)CC)[C@@H](C)CC)C(=O)N[C@@H](C)C(=O)N[C@@H](CCC(=O)O)C(=O)N[C@@H](CO)C(=O)N[C@@H](Cc1ccccc1)C(N)=O [GLFDIIKAIAESF]

- MIC [16]: 8 µM (≈ 18 µg/mL)
- MIC [2]: 4 µM (≈ 9.02 µg/mL)
- MIC [17]: ≥ 32 µM
- MIC [7]: 5.33 µM (≈ 12 µg/mL)
SMILES: CC[C@H](C)[C@H](NC(=O)[C@H](Cc1ccc(O)cc1)NC(=O)[C@H](CC(N)=O)NC(=O)[C@H](CC(N)=O)NC(=O)[C@H](Cc1ccccc1)NC(=O)[C@@H](N)CC(C)C)C(=O)N[C@H](C(=O)N[C@@H](C)C(=O)N[C@@H](C)C(=O)N[C@@H](CC(C)C)C(=O)N[C@@H](CCCCN)C(=O)N[C@@H](CC(C)C)C(=O)N[C@@H](CC(C)C)C(=O)N[C@@H](CCC(=O)O)C(=O)N[C@@H](CCCCN)C(=O)N[C@@H](CC(C)C)C(=O)N[C@@H](Cc1ccc(O)cc1)C(=O)N[C@@H](CCCCN)C(=O)N[C@H](C(N)=O)C(C)C)[C@@H](C)O [LFNNYITAALKLLEKLYKV]

- MIC [6]: ≥ 272 µM
- MIC [18]: ≥ 272 µM
- MIC [17]: ≥ 272 µM
- MIC (Escherichia coli): > 272 µM
- MIC (Staphylococcus aureus): > 272 µM
SMILES: CC[C@H](C)[C@H](NC(=O)[C@H](CC(C)C)NC(=O)[C@H](CC(=O)O)NC(=O)[C@H](CO)NC(=O)[C@H](CCCN=C(N)N)NC(=O)[C@@H](N)CO)C(=O)N[C@H](C(=O)N[C@@H](Cc1cnc[nH]1)C(=O)N[C@@H](CCC(N)=O)C(=O)N[C@@H](CCCN=C(N)N)C(=O)N[C@@H](CC(C)C)C(=O)N[C@@H](Cc1ccccc1)C(N)=O)C(C)C [SRSDLIVHQRLF]

- MIC [6]: ≥ 267 µM
- MIC [18]: ≥ 267 µM
- MIC [17]: ≥ 267 µM
- MIC (Escherichia coli): > 267 µM
- MIC (Staphylococcus aureus): > 267 µM
SMILES: CC[C@H](C)[C@H](NC(=O)[C@H](CCCCN)NC(=O)[C@H](CCC(=O)O)NC(=O)[C@H](CO)NC(=O)[C@H](CCCN=C(N)N)NC(=O)[C@@H](N)CO)C(=O)N[C@H](C(=O)N[C@@H](Cc1cnc[nH]1)C(=O)N[C@@H](CCC(N)=O)C(=O)N[C@@H](CCCN=C(N)N)C(=O)N[C@@H](CC(C)C)C(=O)N[C@@H](Cc1ccccc1)C(N)=O)C(C)C [SRSEKIVHQRLF]

- MIC [19]: 32 µM (≈ 45.7 µg/mL)
- MIC [20]: 8 µM (≈ 11.4 µg/mL)
- MIC [8]: 32 µM (≈ 45.7 µg/mL)
- MIC [7]: 32 µM (≈ 45.7 µg/mL)
- MIC [21]: 32 µM (≈ 45.7 µg/mL)
- MIC [22]: 32 µM (≈ 45.7 µg/mL)
- MIC [23]: 8 µM (≈ 11.4 µg/mL)
- MIC [5]: 8 µM (≈ 11.4 µg/mL)
- MIC (Escherichia coli UB1005): 8 µM (≈ 11.4 µg/mL)
SMILES: CC[C@H](C)[C@H](NC(=O)[C@H](CCCCN)NC(=O)[C@H](C)NC(=O)[C@H](C)NC(=O)[C@H](C)NC(=O)[C@H](CCCCN)NC(=O)[C@H](C)NC(=O)[C@H](C)NC(=O)[C@H](C)NC(=O)[C@H](CCCCN)NC(=O)[C@@H](NC(=O)[C@@H](N)Cc1c[nH]c2ccccc12)[C@@H](C)CC)C(=O)N[C@@H](Cc1c[nH]c2ccccc12)C(N)=O [WIKAAAKAAAKIW]

The next lines start with the compound.

SMILES: CC(C)C[C@H](NC(=O)CNC(=O)CNC(=O)CNC(=O)[C@H](C)NC(=O)[C@H](CC(C)C)NC(=O)[C@H](CC(N)=O)NC(=O)CNC(=O)[C@H](CC(C)C)NC(=O)[C@H](CC(C)C)NC(=O)CNC(=O)[C@@H](NC(=O)[C@@H](NC(=O)[C@H](CO)NC(=O)[C@H](CC(N)=O)NC(=O)[C@H](CC(C)C)NC(=O)[C@H](CC(C)C)NC(=O)CNC(=O)[C@H](CO)NC(=O)[C@@H](NC(=O)[C@H](CC(C)C)NC(=O)CN)C(C)C)C(C)C)[C@@H](C)O)C(=O)O [GLVSGLLNSVTGLLGNLAGGGL]
- MIC [6]: ≥ 100 µM
- MIC [7]: > 100 µM
- MIC [5]: > 100 µM

SMILES: CC[C@H](C)[C@@H]1NC(=O)[C@H](C)NC(=O)[C@@H](NC(=O)[C@H](Cc2ccccc2)NC(=O)[C@@H](NC(=O)[C@H](CCCCN)NC(=O)[C@@H]2CCCN2C(=O)[C@H](CC(C)C)NC(=O)[C@H](Cc2ccccc2)NC(=O)[C@@H](N)CCCCN)[C@@H](C)CC)CSSC[C@@H](C(=O)O)NC(=O)[C@H](CCCCN)NC(=O)[C@H](CCCCN)NC(=O)[C@H]([C@@H](C)O)NC1=O [KFLPKIFCAITKKC]
- MIC [8]: 512 µM (≈ 839 µg/mL)
- MIC [9]: ≥ 32 µM
- MIC [10]: ≥ 128 µM
- MIC [11]: 16 µM (≈ 26.2 µg/mL)
- MIC [12]: ≥ 512 µM
- MIC [13]: ≥ 256 µM
- MIC [14]: 8 µM (≈ 13.1 µg/mL)

SMILES: CC[C@H](C)[C@@H]1NC(=O)[C@H](C)NC(=O)[C@@H](NC(=O)[C@H](Cc2ccccc2)NC(=O)[C@@H](NC(=O)[C@H](CCCCN)NC(=O)[C@H](Cc2c[nH]c3ccccc23)NC(=O)[C@@H]2CCCN2C(=O)[C@H](CC(C)C)NC(=O)[C@H](Cc2ccccc2)NC(=O)[C@@H](N)CCCCN)[C@@H](C)CC)CSSC[C@@H](C(=O)O)NC(=O)[C@H](CCCCN)NC(=O)[C@H](CCCCN)NC(=O)[C@H]([C@@H](C)O)NC1=O [KFLPWKIFCAITKKC]
- MIC [8]: 128 µM (≈ 234 µg/mL)
- MIC [9]: 16 µM (≈ 29.2 µg/mL)
- MIC [10]: 16 µM (≈ 29.2 µg/mL)
- MIC [11]: 8 µM (≈ 14.6 µg/mL)
- MIC [12]: ≥ 256 µM
- MIC [13]: ≥ 64 µM
- MIC [14]: 8 µM (≈ 14.6 µg/mL)

SMILES: CC[C@H](C)[C@H](NC(=O)[C@H](C)NC(=O)[C@@H](NC(=O)[C@@H](NC(=O)[C@@H](NC(=O)CNC(=O)[C@H](CCCCN)NC(=O)[C@H](CCCCN)NC(=O)CNC(=O)[C@@H](N)CCCCN)C(C)C)[C@@H](C)CC)[C@@H](C)CC)C(=O)N[C@@H](CC(C)C)C(=O)N[C@@H](CC(C)C)C(=O)N[C@@H](Cc1ccccc1)C(=O)N[C@@H](C)C(=O)N[C@H](C(=O)N[C@H](C(=O)N[C@@H](Cc1ccc(O)cc1)C(=O)N[C@@H](CCCCN)C(=O)N[C@@H](CCCCN)C(=O)N[C@@H](CCCCN)C(N)=O)[C@@H](C)CC)[C@@H](C)CC [KGKKGVIIAILLFAIIYKKK]
- MIC [2]: 128 µM (≈ 287 µg/mL)
- MIC [8]: 128 µM (≈ 287 µg/mL)
- MIC [5]: 128 µM (≈ 287 µg/mL)
- MIC [15]: ≥ 128 µM

SMILES: CC[C@H](C)[C@H](NC(=O)[C@H](C)NC(=O)[C@H](CCCCN)NC(=O)[C@@H](NC(=O)[C@H](CC(C)C)NC(=O)[C@H](C)NC(=O)CNC(=O)[C@@H](NC(=O)[C@H](CCCCN)NC(=O)[C@H](Cc1ccccc1)NC(=O)[C@H](Cc1ccc(O)cc1)NC(=O)[C@H](CCCCN)NC(=O)[C@H](CCCCN)NC(=O)[C@H](CC(C)C)NC(=O)[C@@H](NC(=O)CNC(=O)[C@@H](NC(=O)[C@@H](N)CCCCN)[C@@H](C)CC)C(C)C)[C@@H](C)CC)[C@@H](C)CC)C(=O)N[C@H](C(=O)N[C@@H](CCCCN)C(N)=O)[C@@H](C)CC [KIGVLKKYFKIGALIKAIIK]
- MIC [2]: 8 µM (≈ 18 µg/mL)
- MIC [8]: 2 µM (≈ 4.49 µg/mL)
- MIC [5]: 8 µM (≈ 18 µg/mL)
- MIC [15]: 1 µM (≈ 2.24 µg/mL)

Reference: DBAASP
